# Literature values, collected in patent publication US8329872B2, “Drug monitoring assay” (Novartis AG, priority 2007, dated 2012).
# Molecular target: classical and novel protein kinase C (PKC) isoforms
compound,measurement,value
CN1CCN(c2nc(C3=C(c4c[nH]c5ccccc45)C(=O)NC3=O)c3ccccc3n2)CC1 [AEB071],ki values,in the nM range
